Where a SMILES comes first, the peptide text is derived from it.
Assays:
[1] = tested on: Plasmodium falciparum; assay: Antiplasmodial activity against Plasmodium falciparum; type: functional, organism-based
[2] = tested on: Plasmodium falciparum; assay: Antiplasmodial activity against D-sorbitol synchronized ring stage chloroquine/mefloquine/pyrimethamine-resistant Plasmodium falciparum Dd2 after 72 hrs; type: functional, organism-based; details: Dd2, 72 h
[3] = tested on: Erythrocyte; assay: Hemolytic activity in human RBC assessed as release of hemoglobin at 0.78 nM to 26 uM incubated for 72 hrs; type: ADME, cell-based; details: 0.00078 µM
[4] = tested on: Plasmodium falciparum; assay: Antiplasmodial activity against D-sorbitol synchronized ring stage Plasmodium falciparum 3D7 after 72 hrs; type: functional, organism-based; details: 3D7, 72 h

IC50 [1] [nM]	Compound	IC50 [2] [nM]	Activity [3]	IC50 [4] [nM]
2200	C[C@@H](O)[C@@H]1NC(=O)CNC(=O)[C@H](Cc2ccccc2)NC(=O)[C@H](Cc2ccccc2)NC(=O)CNC(=O)[C@H](Cc2ccccc2)NC(=O)[C@H](Cc2ccccc2)NC1=O (cyclo(FFGFFGT))			
	CC[C@H](C)[C@@H]1NC(=O)[C@H]([C@@H](C)CC)NC(=O)[C@H]([C@@H](C)CC)NC(=O)[C@@H]2CCCN2C(=O)[C@H]([C@@H](C)O)NC(=O)[C@@H]2CCCN2C(=O)[C@@H]2CCCN2C(=O)[C@H](CC(C)C)NC1=O (cyclo(IIILPPTP))	1800	Non-Toxic	3600
